According to patent US20250295657A1, “Methods and Compositions for Treatment of Inflammation and Inflammatory Conditions” (University of Pittsburgh - Of the Commonwealth System of …, priority 2022, published 2025):

Tested on: pseudotyped SARS-CoV-2 (D614G Spike)
Format: cell-based

O=C(OCc1cc(=O)oc2cc(O)c(O)cc12)c1nn(-c2ccccc2)c(=O)c2ccccc12 [compound 958]
pseudotyped SARS-CoV-2 infection (D614G Spike): prevent pseudotyped SARS-CoV-2 infection
